Key:
Plasmopara viticola = experiment: Leaf disk assay, Plasmopara viticola (downy mildew of grapevine), preventive; format: in vivo; details: foliar, 168 h, grapevine leaf disks, assessed seven days after inoculation, read-out: control of fungal infection, Plasmopara viticola
[1] = system: Erysiphe graminis f.sp. tritici; experiment: Leaf disk assay, Erysiphe graminis f.sp. tritici (wheat powdery mildew), preventive; format: in vivo; details: Blumeria graminis, foliar, 96 h, wheat leaf segments, assessed four days after inoculation, read-out: control of fungal infection, Erysiphe graminis f.sp. tritici
Method in brief: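 Preventive protocol: compound at 200 ppm in water (from DMSO) sprayed onto wheat leaf segments on agar, dried 12–24 h, then spore-inoculated. Fungicidal activity was assessed four days post-inoculation.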

[2] = system: Puccinia recondita f.sp. tritici; experiment: Leaf disk assay, Puccinia recondita f.sp. tritici (wheat brown rust), preventive; format: in vivo; details: foliar, 216 h, wheat leaf segments, assessed nine days after inoculation, read-out: control of fungal infection, Puccinia recondita f.sp. tritici
Pyrenophora teres = experiment: Leaf disk assay, Pyrenophora teres (barley net blotch), preventive; format: in vivo; details: foliar, 96 h, barley leaf segments, assessed four days after inoculation, read-out: control of fungal infection, Pyrenophora teres
Description: The compounds were tested in a leaf disk assay, with methods described below. The test compounds were dissolved in DMSO and diluted into water to 200 ppm. In the case of the test on Pythium ultimum, they were dissolved in DMSO and diluted into water to 20 ppm. Pyrenophora teres (barley net blotch): Barley leaf segments were placed on agar in a 24-well plate and sprayed with a solution of the test compound. After allowing to dry completely, for between 12 and 24 hours, the leaf disks were inoculated with a spore suspension of the fungus. After appropriate incubation the activity of a compound was assessed four days after inoculation as preventive fungicidal activity.

Septoria nodorum = experiment: Leaf disk assay, Septoria nodorum (wheat glume blotch), preventive; format: in vivo; details: Parastagonospora nodorum, foliar, 96 h, wheat leaf segments, assessed four days after inoculation, read-out: control of fungal infection, Septoria nodorum
Phytophthora infestans = experiment: whole plant or invertebrate; format: in vivo; details: in Solanum lycopersicum, foliar, 96 h, read-out: control of fungal infection, Phytophthora infestans
Septoria tritici = experiment: Growth inhibition in nutrient broth, Septoria tritici (leaf blotch), photometric; format: cell-based; details: Zymoseptoria tritici, PDB broth, 24 C, 72 hrs, read-out: control of fungal infection, Septoria tritici
Pythium ultimum = experiment: Growth inhibition in potato dextrose broth, Pythium ultimum (damping off), photometric; format: cell-based; details: Globisporangium ultimum, 24° C., 48 hours, read-out: control of fungal infection, Pythium ultimum
Method in brief: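 Growth inhibition was read photometrically at 48 hours after incubation at 24° C. Test compound was diluted from DMSO to 20 ppm in water and combined with potato dextrose broth seeded with Pythium ultimum mycelial fragments.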

Fusarium culmorum = experiment: Growth inhibition in nutrient broth, Fusarium culmorum (root rot), photometric; format: cell-based; details: 48 h, read-out: control of fungal infection, Fusarium culmorum
Description: The compounds were tested in a leaf disk assay, with methods described below. The test compounds were dissolved in DMSO and diluted into water to 200 ppm. In the case of the test on Pythium ultimum, they were dissolved in DMSO and diluted into water to 20 ppm.
Fusarium culmorum (root rot): Conidia of the fungus from cryogenic storage were directly mixed into nutrient broth (PDB potato dextrose broth). After placing a (DMSO) solution of the test compounds into a microtiter plate (96-well format) the nutrient broth containing the fungal spores was added. The test plates were incubated at 24 C and the inhibition of growth was determined photometrically after 48 hrs.

C#Cc1cnc2c(Cl)cc(OC(SC)C(=O)NC(C)(C)C#C)cc2c1 (stereo not shown) [Example 19]
≥ 60%: pest or weed control at 200 ppm (Plasmopara viticola) | pest or weed control at 200 ppm [1] | pest or weed control at 200 ppm [2] | pest or weed control at 200 ppm (Pyrenophora teres) | pest or weed control at 200 ppm (Septoria nodorum) | pest or weed control at 200 ppm (Phytophthora infestans)

C#Cc1cnc2c(Cl)cc(OC(SC)C(=O)NC(C)(C)C#CCOC)cc2c1 (stereo not shown) [Example 62]
≥ 60%: pest or weed control at 200 ppm (Plasmopara viticola) | inhibition of growth at 60 ppm (Septoria tritici) | pest or weed control at 200 ppm [1] | pest or weed control at 200 ppm [2] | pest or weed control at 200 ppm (Pyrenophora teres) | pest or weed control at 200 ppm (Septoria nodorum) | pest or weed control at 200 ppm (Phytophthora infestans)

C#Cc1cnc2c(C)cc(OC(SC)C(=O)NC(C)(C)COCOC)cc2c1 (stereo not shown) [Example 68]
≥ 60%: pest or weed control at 200 ppm (Plasmopara viticola) | inhibition of growth at 60 ppm (Septoria tritici) | pest or weed control at 200 ppm [1] | pest or weed control at 200 ppm [2] | pest or weed control at 200 ppm (Pyrenophora teres) | pest or weed control at 200 ppm (Septoria nodorum) | pest or weed control at 200 ppm (Phytophthora infestans)

C#Cc1cnc2c(Cl)cc(OC(SC)C(=O)NC(C)(C)COC)cc2c1 (stereo not shown) [Example 74]
≥ 60%: pest or weed control at 200 ppm (Plasmopara viticola) | inhibition of growth at 60 ppm (Septoria tritici) | inhibition of growth at 20 ppm (Pythium ultimum) | pest or weed control at 200 ppm [1] | pest or weed control at 200 ppm [2] | pest or weed control at 200 ppm (Pyrenophora teres) | pest or weed control at 200 ppm (Septoria nodorum) | pest or weed control at 200 ppm (Phytophthora infestans)

C#CCOCC(C)(C)NC(=O)C(Oc1cc(Cl)c2ncc(C#C)cc2c1)SC (stereo not shown) [Example 76]
≥ 60%: pest or weed control at 200 ppm (Plasmopara viticola) | inhibition of growth at 60 ppm (Septoria tritici) | inhibition of growth at 20 ppm (Pythium ultimum) | pest or weed control at 200 ppm [1] | pest or weed control at 200 ppm [2] | pest or weed control at 200 ppm (Pyrenophora teres) | pest or weed control at 200 ppm (Septoria nodorum) | pest or weed control at 200 ppm (Phytophthora infestans)

C#Cc1cnc2ccc(OC(SC)C(=O)NC(C)(C)C#N)cc2c1 (stereo not shown) [Example 82]
≥ 60%: pest or weed control at 200 ppm (Plasmopara viticola) | inhibition of growth at 60 ppm (Septoria tritici) | inhibition of growth at 20 ppm (Pythium ultimum) | pest or weed control at 200 ppm [1] | pest or weed control at 200 ppm [2] | pest or weed control at 200 ppm (Pyrenophora teres) | pest or weed control at 200 ppm (Septoria nodorum) | pest or weed control at 200 ppm (Phytophthora infestans)

C#Cc1cnc2c(C)cc(OC(SC)C(=O)NC(C)(C)COCC)cc2c1 (stereo not shown) [Example 95]
≥ 60%: pest or weed control at 200 ppm (Plasmopara viticola) | inhibition of growth at 60 ppm (Septoria tritici) | inhibition of growth at 20 ppm (Pythium ultimum) | pest or weed control at 200 ppm [1] | pest or weed control at 200 ppm [2] | pest or weed control at 200 ppm (Pyrenophora teres) | pest or weed control at 200 ppm (Septoria nodorum) | pest or weed control at 200 ppm (Phytophthora infestans)

C#Cc1cnc2c(C)cc(OC(SC)C(=O)NC(C)(C#N)CF)cc2c1 (stereo not shown) [Example 102]
≥ 60%: pest or weed control at 200 ppm [2] | pest or weed control at 200 ppm (Pyrenophora teres)

C#Cc1cnc2c(C)cc(OC(CC)C(=O)NC(C)(C)C#CC)cc2c1 (stereo not shown) [Example 113]
≥ 60%: pest or weed control at 200 ppm (Plasmopara viticola) | inhibition of growth at 60 ppm (Septoria tritici) | pest or weed control at 200 ppm [1] | pest or weed control at 200 ppm [2] | pest or weed control at 200 ppm (Pyrenophora teres) | pest or weed control at 200 ppm (Septoria nodorum) | pest or weed control at 200 ppm (Phytophthora infestans)

C#Cc1cnc2c(C)cc(OC(SC)C(=O)NC(C)(COC)COC)cc2c1 (stereo not shown) [Example 133]
≥ 60%: pest or weed control at 200 ppm (Plasmopara viticola) | inhibition of growth at 60 ppm (Septoria tritici) | pest or weed control at 200 ppm [1] | pest or weed control at 200 ppm [2] | pest or weed control at 200 ppm (Pyrenophora teres) | pest or weed control at 200 ppm (Septoria nodorum) | pest or weed control at 200 ppm (Phytophthora infestans)

C#Cc1cnc2cc(F)c(OC(SC)C(=O)NC(C)(C)C#CCCOC)cc2c1 (stereo not shown) [Example 189]
≥ 60%: pest or weed control at 200 ppm (Plasmopara viticola) | inhibition of growth at 60 ppm (Septoria tritici) | inhibition of growth at 20 ppm (Pythium ultimum) | pest or weed control at 200 ppm [1] | pest or weed control at 200 ppm [2] | pest or weed control at 200 ppm (Septoria nodorum) | pest or weed control at 200 ppm (Phytophthora infestans) | inhibition of growth at 60 ppm (Fusarium culmorum)

C#Cc1cnc2cc(F)c(OC(SC)C(=O)NC(C)(C)C#CCOCC)cc2c1 (stereo not shown) [Example 191]
≥ 60%: pest or weed control at 200 ppm (Plasmopara viticola) | inhibition of growth at 60 ppm (Septoria tritici) | inhibition of growth at 20 ppm (Pythium ultimum) | pest or weed control at 200 ppm [1] | pest or weed control at 200 ppm [2] | pest or weed control at 200 ppm (Septoria nodorum) | pest or weed control at 200 ppm (Phytophthora infestans) | inhibition of growth at 60 ppm (Fusarium culmorum)

C#CCOCC#CC(C)(C)NC(=O)C(Oc1cc2cc(C#C)cnc2cc1F)SC (stereo not shown) [Example 198]
≥ 60%: pest or weed control at 200 ppm (Plasmopara viticola) | inhibition of growth at 60 ppm (Septoria tritici) | inhibition of growth at 20 ppm (Pythium ultimum) | pest or weed control at 200 ppm [1] | pest or weed control at 200 ppm [2] | pest or weed control at 200 ppm (Septoria nodorum) | pest or weed control at 200 ppm (Phytophthora infestans) | inhibition of growth at 60 ppm (Fusarium culmorum)

C#Cc1cnc2cc(F)c(OC(SC)C(=O)NC(C)(C)C#CCOCC=C)cc2c1 (stereo not shown) [Example 199]
≥ 60%: pest or weed control at 200 ppm (Plasmopara viticola) | inhibition of growth at 60 ppm (Septoria tritici) | inhibition of growth at 20 ppm (Pythium ultimum) | pest or weed control at 200 ppm [1] | pest or weed control at 200 ppm [2] | pest or weed control at 200 ppm (Septoria nodorum) | pest or weed control at 200 ppm (Phytophthora infestans) | inhibition of growth at 60 ppm (Fusarium culmorum)

C#Cc1cnc2cc(F)c(OC(SC)C(=O)NC(C)(C)COCC)cc2c1 (stereo not shown) [Example 200]
≥ 60%: pest or weed control at 200 ppm (Plasmopara viticola) | inhibition of growth at 60 ppm (Septoria tritici) | inhibition of growth at 20 ppm (Pythium ultimum) | pest or weed control at 200 ppm [1] | pest or weed control at 200 ppm [2] | pest or weed control at 200 ppm (Septoria nodorum) | pest or weed control at 200 ppm (Phytophthora infestans) | inhibition of growth at 60 ppm (Fusarium culmorum)

C#Cc1cnc2ccc(OC(SC)C(=O)NC(C)(C#CC)CC)cc2c1 (stereo not shown) [Example 204]
≥ 60%: pest or weed control at 200 ppm (Plasmopara viticola) | inhibition of growth at 60 ppm (Septoria tritici) | inhibition of growth at 20 ppm (Pythium ultimum) | pest or weed control at 200 ppm [1] | pest or weed control at 200 ppm [2] | pest or weed control at 200 ppm (Septoria nodorum) | pest or weed control at 200 ppm (Phytophthora infestans) | inhibition of growth at 60 ppm (Fusarium culmorum)

C#Cc1cnc2ccc(OC(SC)C(=O)NC3(C#C)CCCCC3)cc2c1 (stereo not shown) [Example 206]
≥ 60%: pest or weed control at 200 ppm (Plasmopara viticola) | inhibition of growth at 60 ppm (Septoria tritici) | inhibition of growth at 20 ppm (Pythium ultimum) | pest or weed control at 200 ppm [1] | pest or weed control at 200 ppm [2] | pest or weed control at 200 ppm (Septoria nodorum) | pest or weed control at 200 ppm (Phytophthora infestans) | inhibition of growth at 60 ppm (Fusarium culmorum)

C#CCNC(=O)C(Oc1ccc2ncc(C#C)cc2c1)SC (stereo not shown) [Example 208]
≥ 60%: pest or weed control at 200 ppm (Plasmopara viticola) | inhibition of growth at 60 ppm (Septoria tritici) | inhibition of growth at 20 ppm (Pythium ultimum) | pest or weed control at 200 ppm [1] | pest or weed control at 200 ppm [2] | pest or weed control at 200 ppm (Septoria nodorum) | pest or weed control at 200 ppm (Phytophthora infestans) | inhibition of growth at 60 ppm (Fusarium culmorum)

C#Cc1cnc2ccc(OC(SC)C(=O)NC3CC3)cc2c1 (stereo not shown) [Example 212]
≥ 60%: pest or weed control at 200 ppm (Plasmopara viticola) | inhibition of growth at 60 ppm (Septoria tritici) | inhibition of growth at 20 ppm (Pythium ultimum) | pest or weed control at 200 ppm [1] | pest or weed control at 200 ppm [2] | pest or weed control at 200 ppm (Septoria nodorum) | pest or weed control at 200 ppm (Phytophthora infestans) | inhibition of growth at 60 ppm (Fusarium culmorum)

C#Cc1cnc2ccc(OC(SC)C(=O)NC3CCC3)cc2c1 (stereo not shown) [Example 213]
≥ 60%: pest or weed control at 200 ppm (Plasmopara viticola) | inhibition of growth at 60 ppm (Septoria tritici) | inhibition of growth at 20 ppm (Pythium ultimum) | pest or weed control at 200 ppm [1] | pest or weed control at 200 ppm [2] | pest or weed control at 200 ppm (Septoria nodorum) | pest or weed control at 200 ppm (Phytophthora infestans) | inhibition of growth at 60 ppm (Fusarium culmorum)

C#Cc1cnc2ccc(OC(SC)C(=O)NC3CCCC3)cc2c1 (stereo not shown) [Example 214]
≥ 60%: pest or weed control at 200 ppm (Plasmopara viticola) | inhibition of growth at 60 ppm (Septoria tritici) | inhibition of growth at 20 ppm (Pythium ultimum) | pest or weed control at 200 ppm [1] | pest or weed control at 200 ppm [2] | pest or weed control at 200 ppm (Septoria nodorum) | pest or weed control at 200 ppm (Phytophthora infestans) | inhibition of growth at 60 ppm (Fusarium culmorum)

C#Cc1cnc2c(F)cc(OC(SC)C(=O)NC(C)(C)C#CCOC)cc2c1 (stereo not shown) [Example 218]
≥ 60%: pest or weed control at 200 ppm (Plasmopara viticola) | inhibition of growth at 60 ppm (Septoria tritici) | inhibition of growth at 20 ppm (Pythium ultimum) | pest or weed control at 200 ppm [1] | pest or weed control at 200 ppm [2] | pest or weed control at 200 ppm (Septoria nodorum) | pest or weed control at 200 ppm (Phytophthora infestans) | inhibition of growth at 60 ppm (Fusarium culmorum)

C#Cc1cnc2c(F)cc(OC(SC)C(=O)NC(C)C)cc2c1 (stereo not shown) [Example 222]
≥ 60%: pest or weed control at 200 ppm (Plasmopara viticola) | inhibition of growth at 60 ppm (Septoria tritici) | inhibition of growth at 20 ppm (Pythium ultimum) | pest or weed control at 200 ppm [1] | pest or weed control at 200 ppm [2] | pest or weed control at 200 ppm (Septoria nodorum) | pest or weed control at 200 ppm (Phytophthora infestans) | inhibition of growth at 60 ppm (Fusarium culmorum)

From patent US8415272B2, “Quinoline derivatives and their use as fungicides” (Syngenta Crop Protection LLC, priority 2008, dated 2013)
